In paper PMC7997032, “Organic synthesis and anti-influenza A virus activity of cyclobakuchiols A, B, C, and D” (PLoS ONE, 2021):
“And” between values parts separate entries of the source, which are not always exact repeats. Identical values can stand only once.

Tests used:
A/PR/8/34 virus [1] = experiment: Immunofluorescence staining of viral NP in influenza A virus-infected MDCK cells; conditions: for NP/DAPI (%) ave: average of 9 wells
Method: MDCK cells were seeded on a 96-well plate at 1 × 10^4 cells/well. […] Each mixture was added to the cells at 37°C in the presence of 5% CO2. […] After influenza A viral infection for 24 h, the cells were fixed with 4% paraformaldehyde in phosphate-buffered saline (PBS) for 30 min at 4°C and subsequently permeabilized by the addition of 0.3% Triton X-100 for 20 min at 25°C. A mouse primary antibody was used to detect the NP of A/PR/8/34 or A/WSN/33 viruses (FluA-NP 4F1; SouthernBiotech, AL, USA). Alexa Fluor488-conjugated goat anti-mouse IgG (H + L) antibody (Thermo Fisher Scientific) was used as the secondary antibody. Cell nuclei were then stained using diamidino-2-phenylindole (DAPI) (Thermo Fisher Scientific). Wells were photographed using a fluorescence microscope (BIOREVO BZ-X700; Keyence, Osaka, Japan). The proportion of influenza A NP-positive cells per DAPI-positive cells was calculated based on measurements recorded using BZ-X Analyzer software (Keyence).

[2] = system: NAD(P)H quinone oxidoreductase 1 (Nqo1); experiment: RT-qPCR of Nqo1 mRNA in MDCK cells with or without A/PR/8/34 virus; format: cell-based, canine; conditions: for NQO1 Canis lupus mRNA, ave / NQO1 Canis lupus mRNA, individual replicates: 12.5uM, MDCK, relative to virus - DMSO; for NQO1 Canis lupus mRNA, ave: ave of #1-3 exp; for NQO1 Canis lupus mRNA, individual replicates: replicates 1-3 of #1, #2, #3 exp, listed as Cyclobakuchiol B
Nrf2 = Nrf2 reporter assay (dual luciferase system) in MDCK cells; format: cell-based, canine
Method: An Nrf2 reporter assay based on the dual luciferase system was performed as previously described. The plasmid pNQO1-ARE (antioxidant response element)-Fluc, provided by Yamamoto M., expressed a Firefly luciferase gene driven by Nrf2 activation, while the plasmid pRL-TK-Rluc vector (Promega, CA, USA) expressed a Renilla luciferase gene driven by the herpes simplex viral thymidine kinase promoter as an internal control. MDCK cells were seeded in a 24-well plate at 1 × 10^5 cells/well and transfected with pNQO1-ARE-luc (0.25 μg) and pRL-TK-Rluc (0.25 μg). At 24 h post-transfection, the cells were treated with 12.5 μM cyclobakuchiols A–D in the infection medium at 37°C under 5% CO2. DMSO (0.125%) and 12.5 μM 1 were used as negative and positive controls, respectively. Total RNA was extracted from the MDCK cell lysates after 24 h of incubation. The levels of Firefly and Renilla luciferase mRNAs were analyzed by RT-qPCR and normalized to that of β-actin mRNA.

A/PR/8/34 virus [3] = experiment: RT-qPCR of viral mRNAs (NP, NS1, PA, PB1, PB2, M2) in infected MDCK cells; format: cell-based, influenza A H1N1 virus
[4] = system: canine interferon-β (Ifn-β); experiment: RT-qPCR of Ifn-β mRNA in MDCK cells with or without A/PR/8/34 virus; format: cell-based; conditions: 12.5uM, relative to virus - DMSO; for MDCK IFN-b mRNA, ave: ave of #1-3 exp; for MDCK IFN-b mRNA, individual replicates: replicates 1-3 of #1, #2, #3 exp, listed as Cyclobakuchiol B
A/WSN/33 virus [5] = experiment: Immunofluorescence staining of viral NP in influenza A virus-infected MDCK cells; conditions: WSN
A/PR/8/34 virus [6] = experiment: Influenza A viral growth assay (viral titer of culture media); format: cell-based, influenza A H1N1 virus; design: viral titer of culture media, individual replicate / viral titer of culture media, ave: unit not given here; conditions: A/PR/8/34 (PR8), 12.5uM, average of #1-3 exp (n=9)
A/PR/8/34 virus [7] = format: cell-based; conditions: 12.5 μM, 24h WB
A/WSN/33 virus [8] = experiment: Influenza A viral growth assay (viral titer of culture media); format: cell-based, influenza A H1N1 virus; conditions: A/WSN/33 (WSN), 12.5uM, average of #1-3 exp (n=9)
[9] = MDCK cells, PR8 virus, relative to DMSO (about 1), ave of #1-3 exp (9 values)
[10] = MDCK cells, PR8 virus, relative to DMSO, replicates 1-3 of #1, #2, #3 exp, listed as Cyclobakuchiol B

`C=C[C@]1(C)CCC(C(=C)C)C(c2ccc(O)cc2)C1` (stereo in doubt) [cyclobakuchiol B] was tested, and the “percentage of influenza A NP-positive cells relative to DMSO” value (A/PR/8/34 virus [1]; A/PR/8/34, 3.1 μM, 24 h, Fig 4B) was “significantly reduced”, the “NP/DAPI (%) ave” value (A/PR/8/34 virus [1]; A/PR/8/34, 3.13 uM) was 5.089% and the “NP/DAPI (%) ave” value (A/PR/8/34 virus [1]; A/PR/8/34, 6.25 uM) was 1.925%. For the same compound, the “NP/DAPI (%) ave” value (A/PR/8/34 virus [1]; A/PR/8/34, 12.5 uM) was 1.075%, the “NP/DAPI (%) ave” value (A/PR/8/34 virus [1]; A/PR/8/34, 25 uM) was 0.927% and the IC50 (A/PR/8/34 virus [1]; Influenza A virus, PR/8, MDCK, read-out: half maximal (50%) inhibitory concentration (IC50)) was 2400 ± 600 nM. The “relative mRNA level of Nqo1 compared with 5-treated cells” value [2] was “significantly higher”, the “NQO1 Canis lupus mRNA, ave” value ([2]; virus + (PR8)) was 1.527 and the “NQO1 Canis lupus mRNA, individual replicates” value ([2]; virus + (PR8)) was 1.793 and 1.729 and 1.393 and 1.933 and 1.0008 and 1.009 and 1.147 and 1.683 and 2.053. For the same compound, the “NQO1 Canis lupus mRNA, ave” value ([2]; virus -) was 1.333, the “NQO1 Canis lupus mRNA, individual replicates” value ([2]; virus -) was 1.179 and 1.391 and 1.475 and 1.419 and 1.382 and 1.189 and 1.372 and 1.36 and 1.235 and the “relative mRNA level of Nqo1 compared with DMSO” value ([2]; without A/PR/8/34 virus, 12.5 μM, 24 h) was “significantly upregulated”. The “Nrf2 activation (reporter assay) in contrast to DMSO” value (Nrf2; 12.5 μM, 24 h, MDCK cells) was “induced”, the “pNQO1-ARE-Luc NRF2 reporter assay, ave” value (Nrf2; 12.5uM, relative to DMSO trans+, ave of #1-3 exp) was 1.319 and the “pNQO1-ARE-Luc NRF2 reporter assay, individual replicates” value (Nrf2; 12.5uM, relative to DMSO trans+, two values each of #1, #2, #3 exp, listed as Cyclobakuchiol B) was 1.305 and 0.9752 and 1.512 and 1.4747 and 1.32 and 1.325. The “PR8 NP gene expression qPCR, ave” value (A/PR/8/34 virus [3]; MDCK PR8, NP mRNA, relative (DMSO about 1), average of #1-3 exp (n=9)) was 0.03219, the “PR8 NP gene expression qPCR, individual replicate” value (A/PR/8/34 virus [3]; MDCK PR8, NP mRNA, relative (DMSO about 1), replicates of #1-3 exp, listed as Cyclobakuchiol B) was 0.01121 and 0.02587 and 0.02406 and 0.03207 and 0.05973 and 0.04959 and 0.06567 and 0.01197 and 0.009584 and the “PR8 NS1 gene expression qPCR, ave” value (A/PR/8/34 virus [3]; MDCK PR8, NS1 mRNA, relative (DMSO about 1), average of #1-3 exp (n=9)) was 0.02013. For the same compound, the “PR8 NS1 gene expression qPCR, individual replicate” value (A/PR/8/34 virus [3]; MDCK PR8, NS1 mRNA, relative (DMSO about 1), replicates of #1-3 exp, listed as Cyclobakuchiol B) was 0.008731 and 0.02017 and 0.01871 and 0.02102 and 0.03896 and 0.02064 and 0.02879 and 0.01388 and 0.01026, the “PR8 PA gene expression qPCR, ave” value (A/PR/8/34 virus [3]; MDCK PR8, PA mRNA, relative (DMSO about 1), average of #1-3 exp (n=9)) was 0.02293 and the “PR8 PA gene expression qPCR, individual replicate” value (A/PR/8/34 virus [3]; MDCK PR8, PA mRNA, relative (DMSO about 1), replicates of #1-3 exp, listed as Cyclobakuchiol B) was 0.01293 and 0.01727 and 0.01489 and 0.01881 and 0.04016 and 0.03375 and 0.04497 and 0.01194 and 0.01167. For the same compound, the “PR8 M2 gene expression qPCR, ave” value (A/PR/8/34 virus [3]; [9]) was 0.0246, the “PR8 PB1 gene expression qPCR, ave” value (A/PR/8/34 virus [3]; [9]) was 0.01874 and the “PR8 PB2 gene expression qPCR, ave” value (A/PR/8/34 virus [3]; [9]) was 0.02588. The “PR8 M2 gene expression qPCR, individual replicates” value (A/PR/8/34 virus [3]; [10]) was 0.01123 and 0.02732 and 0.01583 and 0.02218 and 0.04353 and 0.0372 and 0.04279 and 0.01139 and 0.009915, the “PR8 PB1 gene expression qPCR, individual replicates” value (A/PR/8/34 virus [3]; [10]) was 0.01046 and 0.01271 and 0.006702 and 0.01001 and 0.03897 and 0.03125 and 0.03696 and 0.01163 and 0.009984 and the “PR8 PB2 gene expression qPCR, individual replicates” value (A/PR/8/34 virus [3]; [10]) was 0.01333 and 0.02659 and 0.01745 and 0.02138 and 0.03944 and 0.03441 and 0.05711 and 0.01315 and 0.01011. The “MDCK IFN-b mRNA, ave” value ([4]; virus +) was 5.577, the “MDCK IFN-b mRNA, individual replicates” value ([4]; virus +) was 1.734 and 10.09 and 8.268 and 12.9454 and 4.2 and 4.194 and 4.358 and 1.919 and 2.486 and the “MDCK IFN-b mRNA, ave” value ([4]; virus -) was 2.313. The “MDCK IFN-b mRNA, individual replicates” value ([4]; virus -) was 0.5929 and 0.6599 and 7.314 and 8.038 and 1.086 and 0.609 and 1.136 and 0.5738 and 0.8068, the “NP/DAPI (%) ave” value (A/WSN/33 virus [5]; 3.13uM, ave of 9 values (3 exp)) was 30.5534% and the “NP/DAPI (%) ave” value (A/WSN/33 virus [5]; 6.25uM, ave of 9 values (3 exp)) was 28.157%. The “NP/DAPI (%) ave” value (A/WSN/33 virus [5]; 12.5uM, ave of 9 values (3 exp)) was 30.5618%, the “NP/DAPI (%) ave” value (A/WSN/33 virus [5]; 25uM, ave of 9 values (3 exp)) was 32.0683% and the “NP/DAPI (%) ave” value (A/WSN/33 virus [5]; ave summary, 3.13%) was 30.5534%. The “NP/DAPI (%) ave” value (A/WSN/33 virus [5]; ave summary, 6.25%) was 28.157%, the “NP/DAPI (%) ave” value (A/WSN/33 virus [5]; ave summary, 12.50%) was 30.5618% and the “NP/DAPI (%) ave” value (A/WSN/33 virus [5]; ave summary, 25%) was 32.0683%. The “viral titer of culture media, ave” value (A/PR/8/34 virus [6]; 12h) was 24444.4, the “viral titer of culture media, ave” value (A/PR/8/34 virus [6]; 48h) was 41111.1 and the “viral titer of culture media, ave” value (A/PR/8/34 virus [6]; 72h) was 58888.9. The NP/b-actin ave (A/PR/8/34 virus [7]; average of 3 experiments) was 0.58, the NS1/b-actin ave (A/PR/8/34 virus [7]; average of 3 experiments) was 0.5288 and the “NP mean (western blot signal intensity, ImageJ)” value (A/PR/8/34 virus [7]; single experiment) was 62.433 and 67.763 and 96.513. For the same compound, the NP/b-actin (A/PR/8/34 virus [7]; single experiment) was 0.7275 and 0.4304 and 0.582, the NS1/b-actin (A/PR/8/34 virus [7]; single experiment) was 0.4321 and 0.5028 and 0.6516 and the “NS1 mean (western blot signal intensity, ImageJ)” value (A/PR/8/34 virus [7]; single experiment) was 72.927 and 75.866 and 57.321. The “viral titer of culture media, ave” value (A/WSN/33 virus [8]; 12h) was 12633.3, the “viral titer of culture media, ave” value (A/WSN/33 virus [8]; 24h) was 25455556 and the “viral titer of culture media, ave” value (A/WSN/33 virus [8]; 48h) was 275666667. The “viral titer of culture media, ave” value (A/WSN/33 virus [8]; 72h) was 208055556.
